Test results: patent US20260027116A1, “Methods of Treating Chronic Graft-Versus-Host Disease Following Allogeneic Hematopoietic Stem Cell Transplantation” (Kadmon Corporation, LLC, priority 2022, published 2026)

Test system: lung function
Assay: Example 1: percent predicted FVC change from baseline
Assay type: in vivo, human
Settings: mean (SD)
Method: Change From Baseline in Percent Predicted Forced Vital Capacity (FVC) at Each Specified Time Points. FVC was the total amount of air (in liters) exhaled from the lungs during the lung function test measured by spirometer which assessed the change in lung function related to the disease status. Baseline value was defined as valid and last non-missing value obtained within 28 days prior to participant receiving first study medication. EOT visit was performed within 3 days after the participant's last dose of study drug. […] Analysis was performed on mITT population. Here, ‘number analyzed’=participants with available data for each specified category. Here, ‘0’ in the number analyzed field signifies that none of the participants were available for the analysis at the specified time points.

## CC(C)NC(=O)COc1cccc(-c2nc(Nc3ccc4[nH]ncc4c3)c3ccccc3n2)c1 [Belumosudil, 2-{3-[4-(1H-indazol-5-ylamino)-2-quinazolinyl]phenoxy}-N-(propan-2-yl) acetamide]
Cohort 1: 200 mg QD, Cycle 3, Day 1
  Change From Baseline in Percent Predicted Forced Vital Capacity (FVC): 0.5 (3.8) percent predicted FVC
Cohort 1: 200 mg QD, Cycle 5, Day 1
  Change From Baseline in Percent Predicted Forced Vital Capacity (FVC): −0.5 (7.1) percent predicted FVC
Cohort 1: 200 mg QD, Cycle 7, Day 1
  Change From Baseline in Percent Predicted Forced Vital Capacity (FVC): −2.9 (5.2) percent predicted FVC
Cohort 1: 200 mg QD, Cycle 9, Day 1
  Change From Baseline in Percent Predicted Forced Vital Capacity (FVC): 0.4 (5.1) percent predicted FVC
Cohort 1: 200 mg QD, Cycle 11, Day 1
  Change From Baseline in Percent Predicted Forced Vital Capacity (FVC): −1.1 (7.3) percent predicted FVC
Cohort 1: 200 mg QD, Cycle 12, Day 1
  Change From Baseline in Percent Predicted Forced Vital Capacity (FVC): 2.0 (—) percent predicted FVC
Cohort 1: 200 mg QD, Cycle 13, Day 1
  Change From Baseline in Percent Predicted Forced Vital Capacity (FVC): −2.4 (7.9) percent predicted FVC
Cohort 1: 200 mg QD, Cycle 14, Day 1
  Change From Baseline in Percent Predicted Forced Vital Capacity (FVC): 11.0 (—) percent predicted FVC
Cohort 1: 200 mg QD, Cycle 15, Day 1
  Change From Baseline in Percent Predicted Forced Vital Capacity (FVC): −3.7 (10.4) percent predicted FVC
Cohort 1: 200 mg QD, Cycle 16, Day 1
  Change From Baseline in Percent Predicted Forced Vital Capacity (FVC): 16.0 (—) percent predicted FVC
Cohort 1: 200 mg QD, Cycle 17, Day 1
  Change From Baseline in Percent Predicted Forced Vital Capacity (FVC): −3.2 (6.3) percent predicted FVC
Cohort 1: 200 mg QD, Cycle 19, Day 1
  Change From Baseline in Percent Predicted Forced Vital Capacity (FVC): −2.3 (6.8) percent predicted FVC
Cohort 1: 200 mg QD, Cycle 21, Day 1
  Change From Baseline in Percent Predicted Forced Vital Capacity (FVC): −3.2 (8.1) percent predicted FVC
Cohort 1: 200 mg QD, Cycle 23, Day 1
  Change From Baseline in Percent Predicted Forced Vital Capacity (FVC): 0.0 (12.3) percent predicted FVC
Cohort 1: 200 mg QD, Cycle 24, Day 1
  Change From Baseline in Percent Predicted Forced Vital Capacity (FVC): 4.0 (—) percent predicted FVC
Cohort 1: 200 mg QD, Cycle 25, Day 1
  Change From Baseline in Percent Predicted Forced Vital Capacity (FVC): −7.0 (11.3) percent predicted FVC
Cohort 1: 200 mg QD, Cycle 26, Day 1
  Change From Baseline in Percent Predicted Forced Vital Capacity (FVC): 4.0 (—) percent predicted FVC
Cohort 1: 200 mg QD, Cycle 27, Day 1
  Change From Baseline in Percent Predicted Forced Vital Capacity (FVC): −2.0 (4.2) percent predicted FVC
Cohort 1: 200 mg QD, Cycle 29, Day 1
  Change From Baseline in Percent Predicted Forced Vital Capacity (FVC): 2.5 (4.9) percent predicted FVC
Cohort 1: 200 mg QD, Cycle 30, Day 1
  Change From Baseline in Percent Predicted Forced Vital Capacity (FVC): 4.0 (—) percent predicted FVC
Cohort 1: 200 mg QD, Cycle 31, Day 1
  Change From Baseline in Percent Predicted Forced Vital Capacity (FVC): 1.5 (3.5) percent predicted FVC
Cohort 1: 200 mg QD, Cycle 32, Day 1
  Change From Baseline in Percent Predicted Forced Vital Capacity (FVC): 2.0 (—) percent predicted FVC
Cohort 1: 200 mg QD, Cycle 33, Day 1
  Change From Baseline in Percent Predicted Forced Vital Capacity (FVC): 11.0 (0.0) percent predicted FVC
Cohort 1: 200 mg QD, Cycle 34, Day 1
  Change From Baseline in Percent Predicted Forced Vital Capacity (FVC): 6.0 (—) percent predicted FVC
Cohort 1: 200 mg QD, Cycle 35, Day 1
  Change From Baseline in Percent Predicted Forced Vital Capacity (FVC): 11.0 (5.7) percent predicted FVC
Cohort 1: 200 mg QD, Cycle 36, Day 1
  Change From Baseline in Percent Predicted Forced Vital Capacity (FVC): 5.0 (—) percent predicted FVC
Cohort 1: 200 mg QD, Cycle 48, Day 1
  Change From Baseline in Percent Predicted Forced Vital Capacity (FVC): 5.0 (—) percent predicted FVC
Cohort 1: 200 mg QD, Cycle 49, Day 1
  Change From Baseline in Percent Predicted Forced Vital Capacity (FVC): 6.0 (—) percent predicted FVC
Cohort 1: 200 mg QD, Cycle 51, Day 1
  Change From Baseline in Percent Predicted Forced Vital Capacity (FVC): 9.0 (—) percent predicted FVC
Cohort 1: 200 mg QD, Cycle 52, Day 1
  Change From Baseline in Percent Predicted Forced Vital Capacity (FVC): 3.0 (—) percent predicted FVC
Cohort 1: 200 mg QD, Cycle 53, Day 1
  Change From Baseline in Percent Predicted Forced Vital Capacity (FVC): 8.0 (—) percent predicted FVC
Cohort 1: 200 mg QD, Cycle 54, Day 1
  Change From Baseline in Percent Predicted Forced Vital Capacity (FVC): 5.0 (—) percent predicted FVC
Cohort 1: 200 mg QD, Cycle 55, Day 1
  Change From Baseline in Percent Predicted Forced Vital Capacity (FVC): 13.0 (—) percent predicted FVC
Cohort 1: 200 mg QD, Cycle 56, Day 1
  Change From Baseline in Percent Predicted Forced Vital Capacity (FVC): 7.0 (—) percent predicted FVC
Cohort 1: 200 mg QD, Cycle 57, Day 1
  Change From Baseline in Percent Predicted Forced Vital Capacity (FVC): 14.0 (—) percent predicted FVC
Cohort 1: 200 mg QD, Cycle 58, Day 1
  Change From Baseline in Percent Predicted Forced Vital Capacity (FVC): 7.0 (—) percent predicted FVC
Cohort 1: 200 mg QD, Cycle 60, Day 1
  Change From Baseline in Percent Predicted Forced Vital Capacity (FVC): 8.0 (—) percent predicted FVC
Cohort 1: 200 mg QD, Cycle 61, Day 1
  Change From Baseline in Percent Predicted Forced Vital Capacity (FVC): 12.0 (—) percent predicted FVC
Cohort 1: 200 mg QD, Cycle 62, Day 1
  Change From Baseline in Percent Predicted Forced Vital Capacity (FVC): 5.0 (—) percent predicted FVC
Cohort 1: 200 mg QD, Cycle 63, Day 1
  Change From Baseline in Percent Predicted Forced Vital Capacity (FVC): 12.0 (—) percent predicted FVC
Cohort 1: 200 mg QD, Cycle 67, Day 1
  Change From Baseline in Percent Predicted Forced Vital Capacity (FVC): 14.0 (—) percent predicted FVC
Cohort 1: 200 mg QD, EOT
  Change From Baseline in Percent Predicted Forced Vital Capacity (FVC): −2.5 (10.3) percent predicted FVC
Cohort 2: 200 mg BID, Cycle 3, Day 1
  Change From Baseline in Percent Predicted Forced Vital Capacity (FVC): −2.4 (6.0) percent predicted FVC
Cohort 2: 200 mg BID, Cycle 5, Day 1
  Change From Baseline in Percent Predicted Forced Vital Capacity (FVC): −4.3 (5.2) percent predicted FVC
Cohort 2: 200 mg BID, Cycle 7, Day 1
  Change From Baseline in Percent Predicted Forced Vital Capacity (FVC): −1.3 (6.4) percent predicted FVC
Cohort 2: 200 mg BID, Cycle 8, Day 1
  Change From Baseline in Percent Predicted Forced Vital Capacity (FVC): 2.0 (—) percent predicted FVC
Cohort 2: 200 mg BID, Cycle 9, Day 1
  Change From Baseline in Percent Predicted Forced Vital Capacity (FVC): −2.9 (5.5) percent predicted FVC
Cohort 2: 200 mg BID, Cycle 10, Day 1
  Change From Baseline in Percent Predicted Forced Vital Capacity (FVC): −5.0 (8.5) percent predicted FVC
Cohort 2: 200 mg BID, Cycle 11, Day 1
  Change From Baseline in Percent Predicted Forced Vital Capacity (FVC): −2.7 (5.6) percent predicted FVC
Cohort 2: 200 mg BID, Cycle 12, Day 1
  Change From Baseline in Percent Predicted Forced Vital Capacity (FVC): 1.0 (—) percent predicted FVC
Cohort 2: 200 mg BID, Cycle 13, Day 1
  Change From Baseline in Percent Predicted Forced Vital Capacity (FVC): −3.3 (15.4) percent predicted FVC
Cohort 2: 200 mg BID, Cycle 14, Day 1
  Change From Baseline in Percent Predicted Forced Vital Capacity (FVC): 2.0 (— ) percent predicted FVC
Cohort 2: 200 mg BID, Cycle 15, Day 1
  Change From Baseline in Percent Predicted Forced Vital Capacity (FVC): −3.3 (5.5) percent predicted FVC
Cohort 2: 200 mg BID, Cycle 16, Day 1
  Change From Baseline in Percent Predicted Forced Vital Capacity (FVC): −6.0 (19.8) percent predicted FVC
Cohort 2: 200 mg BID, Cycle 17, Day 1
  Change From Baseline in Percent Predicted Forced Vital Capacity (FVC): −3.0 (11.8) percent predicted FVC
Cohort 2: 200 mg BID, Cycle 18, Day 1
  Change From Baseline in Percent Predicted Forced Vital Capacity (FVC): −7.5 (9.2) percent predicted FVC
Cohort 2: 200 mg BID, Cycle 19, Day 1
  Change From Baseline in Percent Predicted Forced Vital Capacity (FVC): −5.3 (4.7) percent predicted FVC
Cohort 2: 200 mg BID, Cycle 20, Day 1
  Change From Baseline in Percent Predicted Forced Vital Capacity (FVC): −10.5 (2.1) percent predicted FVC
Cohort 2: 200 mg BID, Cycle 21, Day 1
  Change From Baseline in Percent Predicted Forced Vital Capacity (FVC): −3.0 (—) percent predicted FVC
Cohort 2: 200 mg BID, Cycle 22, Day 1
  Change From Baseline in Percent Predicted Forced Vital Capacity (FVC): −11.0 (0.0) percent predicted FVC
Cohort 2: 200 mg BID, Cycle 23, Day 1
  Change From Baseline in Percent Predicted Forced Vital Capacity (FVC): −11.0 (2.8) percent predicted FVC
Cohort 2: 200 mg BID, Cycle 24, Day 1
  Change From Baseline in Percent Predicted Forced Vital Capacity (FVC): −13.0 (—) percent predicted FVC
Cohort 2: 200 mg BID, Cycle 25, Day 1
  Change From Baseline in Percent Predicted Forced Vital Capacity (FVC): −10.5 (3.5) percent predicted FVC
Cohort 2: 200 mg BID, Cycle 27, Day 1
  Change From Baseline in Percent Predicted Forced Vital Capacity (FVC): −18.0 (12.7) percent predicted FVC
Cohort 2: 200 mg BID, Cycle 29, Day 1
  Change From Baseline in Percent Predicted Forced Vital Capacity (FVC): −11.0 (—) percent predicted FVC
